Results taken from patent publication US8183387B2, “Phenylpyrazole derivatives” (Taisho Pharmaceutical Co., Ltd, priority 2007, dated 2012).

Molecular target: human H3 receptor (Homo sapiens, UniProt Q9Y5N1)
Assay: H3 receptor binding test (R(−)-α-methyl[3H]histamine)
Parameters: purchased Euroscreen ES-392-M; host or cells: CHO-K1
Conditions: inhibition of R(−)-α-methyl[3H]histamine (2 nM) binding, membrane of human H3 receptor-expressing CHO-K1 cells
Method: A membrane preparation of human H3 receptor-expressing CHO-K1 cells (Euroscreen, ES-392-M, 15 μg protein/200 μl), R(−)-α-methyl[^3H]histamine (Amersham, TRK-1017, specific activity: 1.74 TBq/mmol, 2 nM) and a test drug were reacted at room temperature for 1 hour. After completion of the reaction, the reaction mixture was subjected to suction filtration through a 0.3% polyethyleneimine-treated glass filter (GF/C). The glass filter was washed five times with 50 mM Tris-HCl washing solution (pH 7.4) containing 5 mM EDTA. After washing, the glass filter was dried and a scintillator was added thereto, followed by measurement of radioactivity on the filter using a liquid scintillation counter.
A fixed concentration (2 nM) of R(−)-α-methyl[^3H]histamine was reacted under the above conditions with each test drug at various concentrations to obtain an inhibition curve.

human H3 receptor, sequence (Q9Y5N1 whole entry): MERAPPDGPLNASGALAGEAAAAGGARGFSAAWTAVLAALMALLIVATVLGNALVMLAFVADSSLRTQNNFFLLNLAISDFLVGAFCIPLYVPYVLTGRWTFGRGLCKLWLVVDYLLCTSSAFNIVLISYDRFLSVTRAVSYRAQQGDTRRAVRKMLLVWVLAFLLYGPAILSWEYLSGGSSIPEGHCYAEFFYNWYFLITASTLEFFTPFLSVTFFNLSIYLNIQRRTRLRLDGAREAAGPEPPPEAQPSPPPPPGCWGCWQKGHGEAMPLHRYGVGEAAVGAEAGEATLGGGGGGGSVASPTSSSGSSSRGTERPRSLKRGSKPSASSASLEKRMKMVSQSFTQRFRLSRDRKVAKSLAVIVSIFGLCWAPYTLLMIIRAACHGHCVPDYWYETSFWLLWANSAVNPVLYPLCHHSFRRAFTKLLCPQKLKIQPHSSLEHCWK

IC50 [nM] | Structure (SMILES)
3.1 | C[C@@H]1CCCN1CCCOc1ccc(-n2cc(N(C)S(C)(=O)=O)cn2)cc1 [Example 49, N-methyl-N-[1-(4-{3-[(2R)-2-methylpyrrolidin-1-yl]propoxy}phenyl)-1H-pyrazol-4-yl]methanesulfonamide]
13.7 | C[C@@H]1CCCN1CCCOc1ccc(-n2cc(NS(=O)(=O)c3cccnc3)cn2)cc1 [Example 51, N-[1-(4-{3-[(2R)-2-methylpyrrolidin-1-yl]propoxy}phenyl)-1H-pyrazol-4-yl]pyridine-3-sulfonamide]
4.6 | C[C@@H]1CCCN1CCCOc1ccc(-n2cc(C(=O)NCCOCCO)cn2)cc1 [Example 69, N-[2-(2-hydroxyethoxy)ethyl]-1-{4-[3-(2-methylpyrrolidin-1-yl)propoxy]phenyl}-1H-pyrazole-4-carboxamide]
4.1 | C[C@@H]1CCCN1CCCOc1ccc(-n2cc(NS(C)(=O)=O)cn2)cc1 [Example 48, N-[1-(4-{3-[(2R)-2-methylpyrrolidin-1-yl]propoxy}phenyl)-1H-pyrazol-4-yl]methanesulfonamide]
2.1 | COc1ccc(C(=O)Nc2cnn(-c3ccc(OCCCN4CCCC4C)cc3)c2)cc1 (stereo not shown) [Example 41, 4-methoxy-N-(1-{4-[3-(2-methylpyrrolidin-1-yl)propoxy]phenyl}-1H-pyrazol-4-yl)benzamide]
0.8 | C[C@@H]1CCCN1CCCOc1ccc(-n2cc(NC(=O)c3ccncc3)cn2)cc1 [Example 44, N-[1-(4-{3-[(2R)-2-methylpyrrolidin-1-yl]propoxy}phenyl)-1H-pyrazol-4-yl]pyridine-4-carboxamide]
1.7 | C[C@@H]1CCCN1CCCOc1ccc(-n2cc(NC(=O)c3ccc(O)cc3)cn2)cc1 [Example 42, 4-hydroxy-N-[1-(4-{3-[(2R)-2-methylpyrrolidin-1-yl]propoxy}phenyl)-1H-pyrazol-4-yl]benzamide]
1 | C[C@@H]1CCCN1CCCOc1ccc(-n2cc(NC(=O)c3cccnc3)cn2)cc1 [Example 43, N-[1-(4-{3-[(2R)-2-methylpyrrolidin-1-yl]propoxy}phenyl)-1H-pyrazol-4-yl]pyridine-3-carboxamide]
4.4 | CC1CCCN1CCCOc1ccc(-n2cc(NC(=O)c3ccc(C#N)cc3)cn2)cc1 (stereo not shown) [Example 40, 4-cyano-N-(1-{4-[3-(2-methylpyrrolidin-1-yl)propoxy]phenyl}-1H-pyrazol-4-yl)benzamide]

The next lines start with the compound.

Structure (SMILES) | IC50 [nM]
C[C@H]1CCCN1CCCOc1ccc(-n2cc(N3CCCC3=O)cn2)cc1 [Example 31, 1-[1-(4-{3-[(2S)-2-methylpyrrolidin-1-yl]propoxy}phenyl)-1H-pyrazol-4-yl]pyrrolidine-2-one] | 5.1
CC(=O)N(C)c1cnn(-c2ccc(OCCCN3CCC[C@H]3C)cc2)c1 [Example 38, N-methyl-N-[1-(4-{3-[(2R)-2-methylpyrrolidin-1-yl]propoxy}phenyl)-1H-pyrazol-4-yl]acetamide] | 0.9
C[C@H]1CCCN1CCCOc1ccc(-n2cc(C#N)cn2)cc1 [Example 5, 1-(4-{3-[(2S)-2-methylpyrrolidin-1-yl]propoxy}phenyl)-1H-pyrazole-4-carbonitrile] | 10.8
CC1CCCN1CCCOc1ccc(-n2cc(C(=O)NC(C)(C)C)cn2)cc1 (stereo not shown) [Example 11, N-tert-butyl-1-{4-[3-(2-methylpyrrolidin-1-yl)propoxy]phenyl}-1H-pyrazole-4-carboxamide] | 1.8
CC(=O)Nc1cnn(-c2ccc(OCCCN3CCC[C@H]3C)cc2)c1 [Example 37, N-[1-(4-{3-[(2R)-2-methylpyrrolidin-1-yl]propoxy}phenyl)-1H-pyrazol-4-yl]acetamide] | 2.1
CCN(CC)CCCOc1ccc(-n2cc(C(=O)NC(C)(C)C)cn2)cc1 [Example 14, N-tert-butyl-1-{4-[3-(diethylamino)propoxy]phenyl}-1H-pyrazole-4-carboxamide] | 13.5
CC1CCCN1CCCOc1ccc(-n2cc(C(=O)N3CCC3)cn2)cc1 (stereo not shown) [Example 21, azetidin-1-yl-(1-{4-[3-(2-methylpyrrolidin-1-yl)propoxy]phenyl}-1H-pyrazol-4-yl)methanone] | 5.7
